Assay results as given in patent US20200171065A1, “METHOD FOR TREATING LIVER DISEASE WITH KINSENOSIDE” (HUAZHONG UNIVERSITY OF SCIENCE AND TECHNOLOGY, priority 2017, published 2020).
Entries after “also recorded” stand apart in the source; their conditions may differ.

Key:
[1] = tested on: hepatic stellate cells (HSC-T6) activated by TGF-β1; assay: Hepatic stellate cells (HSC-T6) activated by TGF-β1; type: cell-based; conditions: different concentrations of KD
Source text: HSCs are important cells involved in liver fibrosis. The activation of HSCs is a key element of the development of liver fibrosis, and its apoptosis can reverse liver fibrosis. Different concentrations of KD were used to […] the hepatic stellate cells (HSC-T6) activated by TGF-β1.

[2] = tested on: C57 mice with D-GalN/LPS acute liver failure; assay: Acute liver failure induced by D-GalN + LPS; type: in vivo
Method: 60 SPF male C57 mice were purchased and raised in the SPF experimental animal center of Tongji Medical College of Huazhong University of Science and Technology. The mice were provided with standard diet and drinking water. The room temperature was controlled at 23±2° C. After 7 days of adaptive feeding, the mice were administered by intragastric administration. The mice were divided into a control group (administered with distilled water), a model group (administered with distilled water), a high dose group (KD-400 group, 400 mg/kg KD), a medium dose group (KD-200 group, 200 mg/kg KD) and a low dose group (KD-100 group, 100 mg/kg KD), ten mice each group. The mice were weighed the next day, and were continuously administered with above drugs respectively for 10 days. One hour after the last gavage, the mice were injected intraperitoneally (the control group was injected with the same amount of normal saline). The agent for the intraperitoneal injection was galactosamine (D-GalN, 500 mg/kg)+lipopolysaccharide (LPS, Eschericia coli 0111: B4, 5 ug/kg), all purchased from Sigma-Aldrich.

[3] = tested on: SD mice with ANIT induced intrahepatic cholestasis; assay: ANIT-induced intrahepatic cholestasis; type: in vivo
Method: 42 SPF SD mice were purchased and raised in the SPF experimental animal center of Tongji Medical College of Huazhong University of Science and Technology. They were provided with standard diet and drinking water. The room temperature was controlled at 23±2° C. After 3 days of adaptive feeding, they were given drugs by intragastric administration. 42 SD mice were randomly divided into 7 groups (normal control group, ANIT model group, KD low-dose group, KD medium dose group, KD high-dose group, UDCA positive control group and KD negative control group), 6 mice in each group were weighed and recorded daily. […] Thereafter, the drug was given again every 24 hours for 3 times, and the animals in each group were fasted (water was provided) after the third time. 72 hours later, the animals were killed and samples were collected.

[4] = tested on: C57BL/6J mice with alcoholic liver fibrosis; assay: Alcoholic liver fibrosis (Lieber-DeCarli liquid diet + CCl4); type: in vivo
Method: C57BL/6J mice aged 8 weeks were raised in the SPF experimental animal center of Tongji Medical College of Huazhong University of Science and Technology. They were provided with standard diet and drinking water. The room temperature was controlled at 23±2° C. After 7 days of adaptive feeding, they were given drugs by intragastric administration.
The mice were fed with a 5% alcoholic Lieber-DeCarli liquid diet and intraperitoneal injection of CCl4 (CCl4 was intraperitoneally injected twice a week for the last four weeks). The mice were developed alcoholic fatty liver disease. The mice were administered with alcohol and drugs. Spherically, drinking water were administered to the control group and the model group, and different doses were administered to the dose groups.

SMILES: O=C1C[C@@H](O[C@@H]2O[C@H](CO)[C@@H](O)[C@H](O)[C@H]2O)CO1 [KD]
- apoptosis of HSC-T6 [1]: promote its apoptosis
- cell cycle of HSC-T6 [1]: could block the cell cycle of the HSC-T6 in the G0/G1 phase
- proliferation of HSC-T6 [1]: inhibit its proliferation
- bleeding and swelling of the liver (appearance) ([2]; KD 100-400 mg/kg, 10 days, gavage, silymarin dose not given): can significantly improve the bleeding and swelling of the liver
- inflammatory cytokines TNF-α, IL-12p70, IFN-γ (flow cytometry kit) ([2]; high, medium and low dose groups): had significant anti-inflammatory effect
- liver histopathological damage (H&E staining) ([2]; high, middle and low KD dose groups): can reduce liver histopathological damage
- apoptotic marker proteins PARP and C-C3 (Western blot) ([2]; high-dose group): could reduce abnormal apoptosis of hepatocytes; also recorded: could down regulate the apoptotic protein
- apoptosis of liver cells (Tunel fluorescence staining) ([2]; mouse, in vivo): could inhibit abnormal apoptosis of the liver cells
- development of acute liver failure (overall) ([2]; mouse, in vivo): can effectively prevent the development of acute liver failure and reduce liver damage
- endoplasmic reticulum stress, expansion and vesiculation ([2]; mouse, in vivo): could down-regulate the process
- liver weight/body weight ([2]; mouse, in vivo): could improve the weight gain of liver bleeding
- mitochondrial structure of the liver (transmission electron microscopy) ([2]; mouse, in vivo): the mitochondrial structure of the liver of the mice was protected
- oxidative stress injuries (MDA, SOD) ([2]; mouse, in vivo): protect the mice from the oxidative stress injuries
- plasma biochemical indexes ([3]; 100 mg/kg KD to normal mice): did not change
- plasma color ([3]; KD 50, 100, 200 mg/kg or UDCA 80 mg/kg by gavage): turned light yellow similar to that of the normal control group
- expression of Fxr and Cyp7a1 genes ([3]; cholestasis mice, high-dose KD): can significantly up regulate the expression of Fxr and Cyp7a1 genes
- expression of Bsep, Mrp2 and Mrp3 genes ([3]; cholestasis mice, medium and high-dose KD): can significantly up regulate the expression of Bsep, Mrp2 and Mrp3 genes
- hepatic sinusoid and inflammatory cell infiltration (HE staining) ([3]; different doses of KD, UDCA treatment group): the expansion of hepatic sinusoid was improved and the infiltration of inflammatory cells was reduced
- plasma ALT, AST, AKP, TBIL and DBIL ([3]; low, medium and high doses of KD, 80 mg/kg UDCA): can significantly reduce ALT, AST, AKP, TBIL and DBIL
- plasma TBA ([3]; medium and high doses of KD, 80 mg/kg UDCA): can significantly reduce TBA
- ANIT-induced intrahepatic cholestasis liver injury (overall) ([3]; mouse, in vivo): can alleviate the liver injury induced by ANIT; also recorded: has a good therapeutic effect on ANIT-induced intrahepatic cholestasis liver injury
- fibrosis degree (Masson staining) ([4]; 40 and 20 mg/kg KD): can significantly reduce the degree of fibrosis in mice; also recorded: the fibrosis degree was reduced
- inflammatory cells and Mallory bodies (H&E staining) ([4]; 40 and 20 mg/kg KD): the inflammatory cells in the KD group were reduced compared with the model group
- SOD activity in the liver homogenate / oxidative stress injuries ([4]; ALF mice): increased the activity of superoxide dismutase (SOD) in the liver of AFL and ALF mice; also recorded: could reverse the oxidative stress injuries
- serum ALT ([4]; ALF mice): decreased the serum alanine aminotransferase (ALT) of AFL and ALF mice; also recorded: decreased after KD treatment
- secretion of TNF-α and IL-6 ([4]; high and medium dose groups): inhibited the secretion of TNF and IL6 in AFL and ALF; also recorded: reduced the secretion of the inflammatory cytokine TNF-α and IL-6
- therapeutic effect on alcoholic liver fibrosis (overall) ([4]; mouse, in vivo): has a good therapeutic effect on alcoholic fatty liver and alcoholic liver fibrosis
